Assay results as given in patent US20020034725A1, “SENSITIZATION OF CELLS TO RADIATION AND AND CHEMOTHERAPY” (priority 1996, published 2002).

Experiments:
[1] = tested on: SW480 colon carcinoma cells; assay: Clonogenic radiation survival of SW480 cells; assay type: cell-based, human; details: 30 μM FTI-277, 24 hours before irradiation
Experimental: SW480 cells were treated for 24 hours with 30 μM FTI-277 before irradiation. Clonogenic survival was subsequently assessed in the cells. Treatment with the inhibitor was maintained for 24 hours after irradiation, at which time medium was replaced with inhibitor free medium. Control cells were treated as above with diluent. Open squares: control cells; closed squares: FTI-277 treated cells.
FIG. 18B is a graph depicting a reduction in the radiation survival of SW480 cells following inhibition of K-ras prenylation by FTI-277 and GGTI-298. SW480 cells were treated for 24 hours with 5 μM FTI-277 and 8 μM GGTI-298 before irradiation and assessment of clonogenic survival. Inhibitor treatment was maintained for 24 hours after irradiation, at which time the medium was replaced with inhibitor free medium. Control cells were treated as above with an equal amount of drug-free diluent. Open squares: control cells; closed squares: FTI and GGTI treated cells.

[2] = tested on: T24 bladder carcinoma cells; assay: Colony formation / surviving fraction at 2 Gray in T24 cells; assay type: cell-based, human
Experimental: FIG. 16B is a graph depicting colony formation following FTI-277 treatment and irradiation of human T24 bladder carcinoma cells. Cells were treated for 24 hours with 5 μM of FTI-277 and were harvested and plated at the indicated cell density in medium containing DMSO (left panel) or 5 μM FTI-277 (right panel) and were immediately irradiated. Cultures were re-fed after 24 hours with medium that contained no inhibitor. […] The cells were allowed to grow for two weeks prior to scoring for colony formation. Open squares: unirradiated cells; closed circles: 2 Gray irradiated cells. The surviving fraction of cells was calculated as described in the description of FIG. 14B. The correlation coefficient for linear regression analysis (r^2) was greater than 0.95 in all cases.
In view of the fact that accumulation of unfarnesylated H-ras in T24 cells takes longer, these cells were pretreated for 24 hours prior to irradiation and subsequent assay for clonogenic survival. An additional consideration raised by pretreatment of cells is that FTI-277 and other farnesyltransferase inhibitors can affect the farnesylation of rho proteins involved in cell morphology and thus alter cell adherence. The pretreatment of T24 cells with FTI-277 reduced the ability of these cells to form discrete colonies after replating, resulting in the formation of secondary satellite colonies. […]

H-ras^v12 = assay: Western blot of H-ras farnesylation in T24 bladder carcinoma cells; assay type: cell-based, human; details: 5 μM
Experimental: FIG. 16A is an image of a Western blot depicting changes in farnesylation of H-ras^v12 following treatment of human bladder carcinoma cells with FTI-277. T24 bladder carcinoma cells were treated with 5 μM of FTI-277 for the times indicated (hours). Samples were harvested and cell lysates were prepared for Western blot analysis using anti-H-ras antibody. Untreated control samples harvested at 0 and 30 hours are shown for comparison.
Cells were lysed in culture dishes with 1 x reducing Laemmli sample buffer. Samples were boiled, sheared and clarified by centrifugation at 14,000 rpm in a microfuge before storage at −20° C. Samples containing equal amounts of protein were separated on a 12% SDS polyacrylamide gel and electrophoretically transferred to nitrocellulose membranes. Membranes were blocked for 1-2 hours in PBS containing 0.1% Tween-20 and 5% powdered milk before antibody addition. Membranes were probed with monoclonal pan-ras antibody AB-4 (Oncogene Science, Uniondale, N.Y.) at a concentration of 0.5 μg/ml, or with monoclonal H-ras antibody LA069 (1:5000 dilution; Quality Biotech, Camden, N.J.). Detection of protein was accomplished using the ECL chemiluminescence kit (Amersham, Arlington Heights, Ill.). Images were digitized using an Arcus II scanner, and figures were assembled using Adobe Photoshop 3.0.

REF-GG cells = assay: SF2 by limiting dilution analysis of clonogens; assay type: cell-based, rat; details: 5 μM FTI-277
Experimental: FIG. 14B comprises two graphs depicting clonogenic survival of REF-GG cells following treatment with GGTI-298 and irradiation. REF-GG cells were plated at 1 to 5 cells per well in microtiter plates in the absence (top panel) or presence (bottom panel) of 8 μM of the geranylgeranyltransferase inhibitor, GGTI-298. Cells were then irradiated with 2 Gray or were mock irradiated. Cells were re-fed after 24 hours with medium that contained no inhibitor, thus diluting the inhibitor to 0.8 μM. These cells were then incubated for two weeks prior to scoring for colony formation. The data are presented as the natural log of the fraction of negative wells. The surviving fraction at 2 Gray was determined from the differences in the slopes obtained by linear regression of analysis of irradiated and unirradiated cells. The surviving fraction at 2 Gray calculated for cells irradiated after GGTI-298 treatment was 0.64. Control cell surviving fraction after 2 Gray was 0.91. The correlation coefficient for linear regression analysis (r^2) was greater than 0.95 in all cases.
Cells were irradiated with the indicated doses of ionizing radiation and were treated with FTI-277 for 24 hours after irradiation (FIG. 14A). […] The shoulders of the survival curves were reduced as were the overall slopes of the survival curves. […]

3.7, 5R and REF-GG cells = assay: Morphological alterations of ras transformed REF cells; assay type: cell-based, rat
Experimental: FIG. 11A is an image of 3.7 cells that were cultured in medium containing 2.5 μM FTI-277 (right) or DMSO (left) for 48 hours.
FIG. 11B is an image of REF-GG cells that were cultured in medium containing 5 μM FTI-277 (right) or DMSO (left) for 48 hours.

COC(=O)[C@H](CCSC)NC(=O)c1ccc(NC[C@@H](N)CS)cc1-c1ccccc1 [FTI-277]
radiation survival [1]: reduction in radiation survival
surviving fraction at 2 Gray irradiation ([2]; 5 μM, 24 hours pretreatment): 0.35
colony formation without irradiation ([2]; FTI-277 treatment alone): did not significantly reduce the fraction of wells giving rise to colonies
time after which unfarnesylated H-ras was detectable (H-ras^v12): 5 h
time required to achieve 50% of ras in the unfarnesylated form (H-ras^v12): 24 h
SF2 (surviving fraction at 2 Gray) (REF-GG cells): 0.81
cell morphology (3.7, 5R and REF-GG cells; H-ras transformed REF cells (3.7 cells 2.5 μM), 48 hours): partial reversion of transformation
cell morphology (3.7, 5R and REF-GG cells; REF-GG cells, 5 μM): did not induce altered cell morphology
